In patent US10927105B1 (Lundbeck La Jolla Research Center, Inc., priority 2017, dated 2021):

Biological target: MAGL (Homo sapiens (Human), UniProt Q99685)
Assay: In vitro competitive activity-based protein profiling (human prefrontal cortex membrane fractions, FP-Rh probe), MAGL band
Conditions: read-out: MAGL IC50 (μM) (human); human prefrontal cortex membrane fractions

MAGL, sequence (Q99685 whole entry): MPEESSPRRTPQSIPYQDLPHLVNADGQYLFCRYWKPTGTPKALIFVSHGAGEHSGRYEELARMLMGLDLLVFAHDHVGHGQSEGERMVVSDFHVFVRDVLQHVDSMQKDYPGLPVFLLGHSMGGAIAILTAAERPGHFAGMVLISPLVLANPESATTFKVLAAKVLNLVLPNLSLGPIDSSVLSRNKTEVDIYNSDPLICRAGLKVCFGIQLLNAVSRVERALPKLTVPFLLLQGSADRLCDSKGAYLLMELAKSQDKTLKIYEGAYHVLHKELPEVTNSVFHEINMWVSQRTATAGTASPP

SMILES | IC50 [µM]
Cc1cc(-c2ccccc2)ccc1CN1CCN(C(=O)n2ccc(C(=O)O)n2)C(C)C1 (stereo not drawn) [Example 89, 1-(2-methyl-4-((3-methyl-[1,1′-biphenyl]-4-yl)methyl)-piperazine-1-carbonyl)-1H-pyrazole-3-carboxylic acid] | < 0.1
CN(Cc1cc(Cl)ccc1C(F)(F)F)C1CCN(C(=O)n2cc(Cl)c(C(=O)O)n2)CC1 [Example 112, 4-chloro-1-(4-((5-chloro-2-(trifluoromethyl)-benzyl)-(methyl)amino)-piperidine-1-carbonyl)-1H-pyrazole-3-carboxylic acid] | < 0.1
Cc1cn(C(=O)N2CCN(Cc3cccc(Oc4ccc(Cl)cc4)c3)CC2)nc1C(=O)O [Example 129, 1-(4-(3-(4-chlorophenoxy)-benzyl)-piperazine-1-carbonyl)-4-methyl-1H-pyrazole-3-carboxylic acid] | < 0.1
Cc1cn(C(=O)N2CCC3(CCN(Cc4cc(Cl)ccc4C(F)(F)F)C3)CC2)nc1C(=O)O [Example 130, 1-(2-(5-chloro-2-(trifluoromethyl)-benzyl)-2,8-diazaspiro[4.5]-decane-8-carbonyl)-4-methyl-1H-pyrazole-3-carboxylic acid] | < 0.1
O=C(O)c1nn(C(=O)N2CCC3(CCN(Cc4cc(Cl)ccc4C(F)(F)F)C3)CC2)cc1Cl [Example 133, 4-chloro-1-(2-(5-chloro-2-(trifluoromethyl)-benzyl)-2,8-diazaspiro[4.5]-decane-8-carbonyl)-1H-pyrazole-3-carboxylic acid] | < 0.1
O=C(O)c1nn(C(=O)N2CCC3(CC2)CN(Cc2cc(Cl)ccc2C(F)(F)F)C3)cc1Cl [Example 134, 4-chloro-1-(2-(5-chloro-2-(trifluoromethyl)-benzyl)-2,7-diazaspiro[3.5]-nonane-7-carbonyl)-1H-pyrazole-3-carboxylic acid] | < 0.1
O=C(O)c1nn(C(=O)N2CC3CN(Cc4cc(Cl)ccc4Cl)CC3C2)cc1Cl (stereo not drawn) [Example 136, 4-chloro-1-(5-(2,5-dichlorobenzyl)-octahydropyrrolo-[3,4-c]pyrrole-2-carbonyl)-1H-pyrazole-3-carboxylic acid] | < 0.1
O=C(O)c1nn(C(=O)N2CCC3(CCN(Cc4ccc(N5CCCC5)cc4C(F)(F)F)C3)CC2)cc1Cl [Example 138, 4-chloro-1-(2-(4-(pyrrolidin-1-yl)-2-(trifluoromethyl)-benzyl)-2,8-diazaspiro[4.5]-decane-8-carbonyl)-1H-pyrazole-3-carboxylic acid] | < 0.1
O=C(O)c1nn(C(=O)N2CC3CN(Cc4ccc(N5CCCC5)cc4C(F)(F)F)CC3C2)cc1Cl (stereo not drawn) [Example 140, 4-chloro-1-(5-(4-(pyrrolidin-1-yl)-2-(trifluoromethyl)-benzyl)-octahydropyrrolo-[3,4-c]pyrrole-2-carbonyl)-1H-pyrazole-3-carboxylic acid] | < 0.1
O=C(O)c1nn(C(=O)N2CCC3(CCN(Cc4cc(Cl)ccc4C(F)(F)F)C3)CC2)cc1C(F)(F)F [Example 148, 1-(2-(5-chloro-2-(trifluoromethyl)-benzyl)-2,8-diazaspiro[4.5]-decane-8-carbonyl)-4-(trifluoromethyl)-1H-pyrazole-3-carboxylic acid] | < 0.1
O=C(O)c1ccn(C(=O)N2CCC3(CCN(Cc4cc(Cl)cc(Cl)c4)C3)CC2)n1 [Example 162, 1-(2-(3,5-dichlorobenzyl)-2,8-diazaspiro[4.5]-decane-8-carbonyl)-1H-pyrazole-3-carboxylic acid] | < 0.1
NC(=O)c1ccn(C(=O)N2CCC3(CCN(Cc4ccc(N5CCOCC5)cc4Cl)C3)CC2)n1 [Example 197, 1-(2-(2-chloro-4-morpholinobenzyl)-2,8-diazaspiro[4.5]-decane-8-carbonyl)-1H-pyrazole-3-carboxamide] | < 0.1
NC(=O)c1ccn(C(=O)N2CCN(Cc3cccc(C(F)(F)F)c3N3CCOCC3)CC2)n1 [Example 199, 1-(4-(2-morpholino-3-(trifluoromethyl)-benzyl)piperazine-1-carbonyl)-1H-pyrazole-3-carboxamide] | < 0.1
CC(C)(O)COc1cccc(CN2CCN(C(=O)n3ccc(C(=O)O)n3)CC2)c1Cl [Example 213, 1-(4-(2-chloro-3-(2-hydroxy-2-methylpropoxy)-benzyl)piperazine-1-carbonyl)-1H-pyrazole-3-carboxylic acid] | < 0.1
C[C@@H]1CN(Cc2cccc(OCC(C)(C)O)c2Cl)CCN1C(=O)n1ccc(C(N)=O)n1 [Example 216, (R)-1-(4-(2-chloro-3-(2-hydroxy-2-methylpropoxy)-benzyl)-2-methylpiperazine-1-carbonyl)-1H-pyrazole-3-carboxamide] | < 0.1

Results, then the compound that gave them:

IC50 [µM] | SMILES
< 0.1 | O=C(O)c1ccn(C(=O)N2CCN(Cc3cccc(Oc4ccccc4Cl)c3)CC2)n1 [Example 85, 1-(4-(3-(2-chlorophenoxy)-benzyl)piperazine-1-carbonyl)-1H-pyrazole-3-carboxylic acid]
< 0.1 | O=C(O)c1ccn(C(=O)N2CCN(Cc3ccc(C(F)(F)F)cc3N3CC[C@H](F)C3)CC2)n1 [Example 92, (S)-1-(4-(2-(3-fluoropyrrolidin-1-yl)-4-(trifluoromethyl)-benzyl)-piperazine-1-carbonyl)-1H-pyrazole-3-carboxylic acid]
< 0.1 | O=C(O)c1ccn(C(=O)N2CCC3(CCCN3Cc3ccc(C(F)(F)F)cc3N3CCCC3)CC2)n1 [Example 93, 1-(1-(2-(pyrrolidin-1-yl)-4-(trifluoromethyl)-benzyl)-1,8-diazaspiro[4.5]-decane-8-carbonyl)-1H-pyrazole-3-carboxylic acid]
< 0.1 | O=C(O)c1ccn(C(=O)N2CCN(Cc3cccc(Oc4ccc(Cl)cc4)c3)CC2)n1 [Example 98, 1-(4-(3-(4-chlorophenoxy)-benzyl)-piperazine-1-carbonyl)-1H-pyrazole-3-carboxylic acid]
< 0.1 | O=C(O)c1ccn(C(=O)N2CCN(Cc3ccc(C(F)(F)F)cc3N3CCCCC3)CC2)n1 [Example 100, 1-(4-(2-(piperidin-1-yl)-4-(trifluoromethyl)-benzyl)-piperazine-1-carbonyl)-1H-pyrazole-3-carboxylic acid]
< 0.1 | O=C(O)c1ccn(C(=O)N2CC3CN(Cc4cc(Cl)cc(C(F)(F)F)c4)CC3C2)n1 (stereo not drawn) [Example 124, 1-(5-(3-chloro-5-(trifluoromethyl)-benzyl)-octahydropyrrolo-[3,4-c]pyrrole-2-carbonyl)-1H-pyrazole-3-carboxylic acid]
< 0.1 | O=C(O)c1ccn(C(=O)N2C[C@H]3C[C@H](OCc4cccc(C(F)(F)F)c4)C[C@H]3C2)n1 [Example 157, 1-(trans-5-((3-(trifluoromethyl)-benzyl)oxy)-octahydrocyclopenta-[c]pyrrole-2-carbonyl)-1H-pyrazole-3-carboxylic acid]
< 0.1 | Cc1c(CO[C@H]2C[C@@H]3CN(C(=O)n4ccc(C(=O)O)n4)C[C@@H]3C2)cccc1C(F)(F)F [Example 159, 1-(trans-5-((2-methyl-3-(trifluoromethyl)-benzyl)oxy)-octahydrocyclo-penta-nl [c]pyrrole-2-carbonyl)-1H-pyrazole-3-carboxylic acid]
< 0.1 | O=C(O)c1ccn(C(=O)N2C[C@H]3C[C@@H](Oc4cccc(-c5ccccc5)c4)C[C@H]3C2)n1 [Example 164, 1-(cis-5-([1,1′-biphenyl]-3-yloxy)-octahydrocyclopenta-[c]pyrrole-2-carbonyl)-1H-pyrazole-3-carboxylic acid]
< 0.1 | O=C(O)c1ccn(C(=O)N2CCN(Cc3ccc(N4CCCC4)cc3C(F)(F)F)CC2)n1 [Example 167, 1-(4-(4-(pyrrolidin-1-yl)-2-(trifluoromethyl)-benzyl)piperazine-1-carbonyl)-1H-pyrazole-3-carboxylic acid]
< 0.1 | O=C(O)c1ccn(C(=O)N2CCC3(CCN(Cc4ccc(-c5ccccc5)cc4C(F)(F)F)C3)CC2)n1 [Example 170, 1-(2-((3-(trifluoromethyl)-[1,1′-biphenyl]-4-yl)methyl)-2,8-diazaspiro[4.5]-decane-8-carbonyl)-1H-pyrazole-3-carboxylic acid]
< 0.1 | NC(=O)c1ccn(C(=O)N2CCN(Cc3cnccc3C(F)(F)F)CC2)n1 [Example 175, 1-(4-((4-(trifluoromethyl)-pyridin-3-yl)methyl)-piperazine-1-carbonyl)-1H-pyrazole-3-carboxamide]
< 0.1 | CN(Cc1cc(Cl)ccc1C(F)(F)F)CC1CCN(C(=O)n2ccc(C(=O)O)n2)CC1 [Example 209, 1-(4-(((5-chloro-2-(trifluoromethyl)-benzyl)-(methyl)amino)-methyl)piperidine-1-carbonyl)-1H-pyrazole-3-carboxylic acid]
< 0.1 | O=C(O)c1ccn(C(=O)N2CCC3(CCN(Cc4cc(Cl)ccc4C(F)(F)F)CC3)CC2)n1 [Example 217, 1-(9-(5-chloro-2-(trifluoromethyl)-benzyl)-3,9-diazaspiro[5.5]-undecane-3-carbonyl)-1H-pyrazole-3-carboxylic acid]
< 0.1 | O=C(O)c1ccn(C(=O)N2C[C@H]3C[C@H](Oc4cccc(C5CC5)c4)C[C@H]3C2)n1 [Example 219, 1-(trans-5-(3-cyclopropyl-phenoxy)-octahydrocyclopenta-[c]pyrrole-2-carbonyl)-1H-pyrazole-3-carboxylic acid]
< 0.1 | CC(C)c1cccc(O[C@H]2C[C@@H]3CN(C(=O)n4ccc(C(=O)O)n4)C[C@@H]3C2)c1 [Example 220, 1-(trans-5-(3-isopropylphenoxy)-octahydrocyclopenta-[c]pyrrole-2-carbonyl)-1H-pyrazole-3-carboxylic acid]
< 0.1 | CC(C)c1ccccc1O[C@H]1C[C@@H]2CN(C(=O)n3ccc(C(=O)O)n3)C[C@@H]2C1 [Example 221, 1-(trans-5-(2-isopropylphenoxy)-octahydrocyclopenta-[c]pyrrole-2-carbonyl)-1H-pyrazole-3-carboxylic acid]
< 0.1 | O=C(O)c1ccn(C(=O)N2C[C@H]3C[C@H](Oc4cc(F)cc(Cl)c4)C[C@H]3C2)n1 [Example 222, 1-(trans-5-(3-chloro-5-fluorophenoxy)-octahydrocyclopenta-[c]pyrrole-2-carbonyl)-1H-pyrazole-3-carboxylic acid]
